Measurements as given in US8598132B2, “Glycosylated indolocarbazoles, method for obtaining same and uses thereof” (Universidad de Oviedo, priority 2008, dated 2013).

How the values were obtained:
MDA-MB-231 (breast) = assay: SRB anti-tumour (growth inhibition) assay, MDA-MB-231; assay type: cell-based; details: Homo sapiens, 48 h exposure, read-out: GI50 (concentration inhibiting 50% of cell growth)
Description: (§1) The compounds generated were tested against a series of cell lines from tumours. It quantitatively determined the cell growth and the viability, using a colorimetric assay type, using the reaction with sulforhodamine B (SRB), according to the technique described by Faircloth et al. (Journal of Tissue and Culture Methods 1988, 11, 201-205).
(§2) 96-well microtitre plates are inoculated with cells (5×10^3 cells per well) in aliquots of 195 μl of medium, incubating them during 18 h, in a medium without added compound, to allow the cells to adhere to the surface. Next, the compounds to be tested are added, in samples of 5 μl, at a range of concentrations of 10 to 10^−8 μg/ml, dissolved in DMSO/EtOH (0.2% in PS buffer). After 48 h exposure, the anti-tumour effect is measured using the Sulforhodamine B (SRB) technique: the cells are fixed adding 50 μl of cold […] (50%) (w/v) and it is incubated for 60 min. at 4° C. The plates are washed with deionized water and dried. 100 μl of SRB solution (0.4% w/v in 1% acetic acid) to each well and it is incubated during 10 min. at ambient temperature. The non-bound SRB is eliminated, washing with 1% acetic acid. The plates are air dried and the bound colorant is dissolved with Tris buffer. The optical densities are read in an automatic plate spectrophotometer reader at a wavelength of 490 nm.
(§3) For the compounds of formula (III), (IV), (V), (VI), (VII), (VIII), (IX) and the compounds of formula (XII), (XIII), (XIV), (XV), (XVI) and (XVIII).

A549 (lung) = assay: SRB anti-tumour (growth inhibition) assay, A549; assay type: cell-based; details: Homo sapiens, 48 h exposure, read-out: GI50 (concentration inhibiting 50% of cell growth)
Description: as §1, §2, §3

Work on `C[C@@H]1O[C@@H](n2c3ccccc3c3c4c(c5c6ccccc6[nH]c5c32)C(=O)NC4=O)[C@H](O)[C@H](O)[C@H]1O` [formula (III), N^13-1′-β-L-rhamnosylarcyriaflavin] yielded a GI50 (MDA-MB-231 (breast)) of 4.4 µM and a GI50 (A549 (lung)) of 4.18 µM.
For `C[C@@H]1O[C@@H](n2c3ccccc3c3c4c(c5c6ccccc6[nH]c5c32)C(=O)NC4=O)C[C@H](O)[C@H]1O` [formula (IV), N^13-1′-β-L-olivosylarcyriaflavin], the GI50 (MDA-MB-231 (breast)) was 14.1 µM and the GI50 (A549 (lung)) was 8.79 µM.
With `C[C@]12O[C@H](C[C@@H](O)[C@H]1O)n1c3ccccc3c3c4c(c5c6ccccc6n2c5c31)C(=O)NC4=O` [formula (IX), N^12-5′(S)-N^13-1′-(R)-L-digitoxosylarcyriaflavin] the GI50 (MDA-MB-231 (breast)) was 8.16 µM and the GI50 (A549 (lung)) was 5.51 µM.
In the case of `C[C@@H]1O[C@@H](n2c3ccccc3c3c4c(c5c6ccccc6[nH]c5c32)C(=O)NC4=O)C[C@@H](O)[C@H]1O` [formula (V), N^13-1′-β-L-digitoxosylarcyriaflavin], the GI50 (MDA-MB-231 (breast)) is reported as 4.19 µM and the GI50 (A549 (lung)) is reported as 4.41 µM.
In the case of `C[C@H]1O[C@@H](n2c3ccccc3c3c4c(c5c6ccccc6[nH]c5c32)C(=O)NC4=O)C[C@@H](O)[C@@H]1O` [formula (VI), N^13-1′-β-D-olivosylarcyriaflavin], the GI50 (MDA-MB-231 (breast)) is reported as 2.43 µM and the GI50 (A549 (lung)) is reported as 2.21 µM.
`C[C@]12O[C@H]([C@H](O)[C@H](O)[C@H]1O)n1c3ccccc3c3c4c(c5c6ccccc6n2c5c31)C(=O)NC4=O` [formula (VII), N^12-5′(S)-N^13-1′-(R)-L-rhamnosylarcyriaflavin] showed a GI50 (MDA-MB-231 (breast)) of 1.35 µM and a GI50 (A549 (lung)) of 2.04 µM.
`C[C@]12O[C@H](C[C@H](O)[C@H]1O)n1c3ccccc3c3c4c(c5c6ccccc6n2c5c31)C(=O)NC4=O` [formula (VIII), N^12-5′(S)-N^13-1′-(R)-L-olivosylarcyriaflavin] was tested, and the GI50 (MDA-MB-231 (breast)) was 7.5 µM and the GI50 (A549 (lung)) was 5.73 µM.
In the case of `C[C@@H]1O[C@@H](n2c3ccccc3c3c4c(c5c6ccccc6[nH]c5c32)CNC4=O)[C@H](O)[C@H](O)[C@H]1O` [formula (XII), N^13-1′-β-L-rhamnosyl-k252c], the GI50 (MDA-MB-231 (breast)) is reported as 1.97 µM and the GI50 (A549 (lung)) is reported as 2.84 µM.
For `C[C@@H]1O[C@@H](n2c3ccccc3c3c4c(c5c6ccccc6[nH]c5c32)CNC4=O)C[C@H](O)[C@H]1O` [formula (XIII), N^13-1′-β-L-olivosyl-k252c], the GI50 (MDA-MB-231 (breast)) was 1.43 µM and the GI50 (A549 (lung)) was 1.56 µM.
For `C[C@@H]1O[C@@H](n2c3ccccc3c3c4c(c5c6ccccc6[nH]c5c32)CNC4=O)C[C@@H](O)[C@H]1O` [formula (XIV), N^13-1′-β-L-digitoxosyl-k252c], the GI50 (MDA-MB-231 (breast)) was 2.49 µM and the GI50 (A549 (lung)) was 3.4 µM.
`C[C@H]1O[C@@H](n2c3ccccc3c3c4c(c5c6ccccc6[nH]c5c32)CNC4=O)C[C@@H](O)[C@@H]1O` [formula (XV), N^13-1′-β-D-olivosyl-k252c] gave a GI50 (MDA-MB-231 (breast)) of 3.17 µM and a GI50 (A549 (lung)) of 4.98 µM.
In the case of `C[C@]12O[C@H]([C@H](O)[C@H](O)[C@H]1O)n1c3ccccc3c3c4c(c5c6ccccc6n2c5c31)CNC4=O` [formula (XVI), N^12-5′(S)-N^13-1′-(R)-L-rhamnosyl-k252c], the GI50 (MDA-MB-231 (breast)) is reported as 0.59 µM and the GI50 (A549 (lung)) is reported as 0.61 µM.
In the case of `C[C@]12O[C@H](C[C@H](O)[C@H]1O)n1c3ccccc3c3c4c(c5c6ccccc6n2c5c31)CNC4=O` [formula (XVII), N^12-5′(S)-N^13-1′-(R)-L-olivosyl-k252c], the GI50 (MDA-MB-231 (breast)) is reported as 1.05 µM and the GI50 (A549 (lung)) is reported as 1.02 µM.
Work on `C[C@]12O[C@H](C[C@@H](O)[C@H]1O)n1c3ccccc3c3c4c(c5c6ccccc6n2c5c31)CNC4=O` [formula (XVIII), N^12-5′(S)-N^13-1′-(R)-L-digitoxosyl-k252c] yielded a GI50 (MDA-MB-231 (breast)) of 1.84 µM and a GI50 (A549 (lung)) of 1.96 µM.
